Results taken from PubChem BioAssay (NCI).
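Following 48 hours of exposure in 96-well plates, responses at five concentrations were used to interpolate endpoints linearly. At the GI50, growth is halved. TGI denotes the concentration required for complete inhibition of growth.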

What was measured:
Assay in all cases: NCI-60 cell line screen, 48 h
UACC-62 melanoma = system: UACC-62 melanoma
CAKI-1 renal = system: CAKI-1 renal
SF-539 CNS = system: SF-539 CNS
EKVX NSCLC = system: EKVX NSCLC
NCI-H522 lung = system: NCI-H522 lung
SF-268 CNS = system: SF-268 CNS
TK-10 renal = system: TK-10 renal
HCT-15 colon = system: HCT-15 colon
DU-145 prostate = system: DU-145 prostate
MDA-MB-435 = system: MDA-MB-435

SMILES	TGI (UACC-62 melanoma) [µM]	TGI (CAKI-1 renal) [µM]	TGI (SF-539 CNS) [µM]	TGI (EKVX NSCLC) [µM]	TGI (NCI-H522 lung) [µM]	TGI (SF-268 CNS) [µM]	TGI (TK-10 renal) [µM]	GI50 (UACC-62 melanoma) [µM]	GI50 (CAKI-1 renal) [µM]	GI50 (EKVX NSCLC) [µM]	GI50 (NCI-H522 lung) [µM]	GI50 (SF-268 CNS) [µM]	GI50 (HCT-15 colon) [µM]	TGI (HCT-15 colon) [µM]	GI50 (TK-10 renal) [µM]	GI50 (SF-539 CNS) [µM]	TGI (DU-145 prostate) [µM]	GI50 (DU-145 prostate) [µM]	GI50 (MDA-MB-435) [µM]	TGI (MDA-MB-435) [µM]
Cc1c(C(=O)/C=C/c2ccc([N+](=O)[O-])cc2)[n+](=O)c2ccccc2n1[O-]	> 100	> 100	> 100	> 100	53.6	> 100	> 100													
CC(=O)[CH-]C(=O)c1ccccc1.CC(=O)[CH-]C(=O)c1ccccc1.CC(=O)[CH-]C(=O)c1ccccc1.[Cl-].[Hf+4]	> 100	62.6		92.9	> 100	> 100	> 100	29.7	20.1	24.2	26.5	23.7	23.9	> 100	39					
CC(C)(C)c1cc(Cc2ccc(S(C)(=O)=O)cc2)c(O)c(C(C)(C)C)c1	26	29.8	30.7	28.4	24.9	25.9	31.7							31						
CC(=O)[CH-]C(=O)c1ccccc1.CC(=O)[CH-]C(=O)c1ccccc1.CC[C@H](CCC(C)[C@H]1CCC2[C@@H]3CC=C4C[C@@H]([O-])CC[C@]4(C)C3CC[C@@]21C)C(C)C.CC[C@H](CCC(C)[C@H]1CCC2[C@@H]3CC=C4C[C@@H]([O-])CC[C@]4(C)C3CC[C@@]21C)C(C)C.Cl.[Ti+4] (stereo partly specified)	> 25	> 25	> 25	> 25	> 25	> 25	> 25	> 25						> 25						
COC1(OC)CCC2(C)OC(c3ccccc3)C1O2 (stereo unspecified)	> 100	> 100	> 100	> 100	> 100	> 100	> 100							> 100						
CC12CCC(=O)N1[C@@H](c1ccccc1)[C@@H](c1ccccc1)O2 (stereo partly specified)	> 100	> 100	> 100		> 100	> 100								> 100						
[CH3][Ge]([CH3])([CH2]CC#N)[S]c1ccccc1	29.8	43.7	27.8	66.2	11.1	51.6	72.8	13.5	21.3	7.28	3.31	18.6	15	28.2	24.4	12.9				
CCCCN(CCCC)CC(C(=O)Nc1ccc([N+](=O)[O-])cc1[N+](=O)[O-])/C(C)=N\NC(=O)c1ccncc1 (stereo unspecified)	> 100	> 100	> 100	> 100	> 100	> 100	> 100							> 100						
Nc1nc2c(ncn2C2OC(CO)C(O)C2O)c(=O)o1 (stereo unspecified)	> 100	> 100	> 100	> 100	> 100	> 100	> 100							> 100			> 100			
NC(N)=NCCCC(Nc1c2ccccc2nc2ccccc12)C(=O)O (stereo unspecified)		> 100	> 100	> 100	> 100	> 100	> 100							> 100						
NNC(=O)N/N=C(/CC1(O)C(=O)Nc2ccc(Br)cc21)c1ccccc1 (stereo unspecified)	50.9	> 100	> 100	> 100	46.6	> 100	> 100							> 100						
Cc1[nH]c2ccccc2c1/C=C/c1c(C)[nH]c2ccccc12	> 100	> 100	> 100	> 100			> 100							> 100						
Cc1ccc(/C=C(/C#N)n2nnc3cccc(F)c32)cc1	11.1	25.3	0.657	18.7	14.9	12.5	13	0.32	0.327	0.863	0.194	0.58	0.24	8.69	1.22	0.247	7.13	0.332		
Cc1cc(NS(=O)(=O)c2ccc(-c3cnc(C4CC4)o3)cc2)ccc1Cl	12.3	15.5	4.09	17.1	3.38	19.9	16	0.117	0.0908	0.557	0.0761	2.19	0.116	12.7	1.11	0.281	15.1	0.455		
C=C1C2CCCC1C1(S(C)(=O)=O)CCCCC21O (stereo unspecified)	> 100	> 100	> 100	> 100	> 100		> 100							> 100						
COc1ccc(C(=O)C(c2ccc(OC)cc2)C2(O)C(=O)Nc3c(Cl)cc(Cl)cc32)cc1 (stereo unspecified)		49.6		38.9	35.2	> 100	55							49.8						
O=C(CCl)N1CCN(c2ccccn2)CC1		33.5		48.6		63.8	35.8							> 10			> 100			

SMILES	TGI (UACC-62 melanoma) [µM]	TGI (CAKI-1 renal) [µM]	TGI (SF-539 CNS) [µM]	TGI (EKVX NSCLC) [µM]	TGI (NCI-H522 lung) [µM]	TGI (SF-268 CNS) [µM]	TGI (TK-10 renal) [µM]	GI50 (UACC-62 melanoma) [µM]	GI50 (CAKI-1 renal) [µM]	GI50 (EKVX NSCLC) [µM]	GI50 (NCI-H522 lung) [µM]	GI50 (SF-268 CNS) [µM]	GI50 (HCT-15 colon) [µM]	TGI (HCT-15 colon) [µM]	GI50 (TK-10 renal) [µM]	GI50 (SF-539 CNS) [µM]	TGI (DU-145 prostate) [µM]	GI50 (DU-145 prostate) [µM]	GI50 (MDA-MB-435) [µM]	TGI (MDA-MB-435) [µM]
CC1CN1c1c(C(=O)/C=C/c2ccc(F)cc2)c(-c2ccccc2)nn(C)c1=O (stereo unspecified)	27.6			33.4		30.4	31													
NC(=S)N/N=C/C(O[C@@H](/C=N/NC(N)=S)CO)n1cnc2c(N)ncnc21 (stereo partly specified)	> 100	> 100	> 100	> 100	> 72.4	> 100	> 100							> 62						
CCCN(CCCC(NC(C)=O)C(=O)NCc1ccccc1)C(=O)N(C)N=O (stereo unspecified)	> 100	> 100	> 100	> 100	> 100	> 100	> 100							> 100						
Oc1ccc(I)c2cccnc12			> 100	65.2	7.2	72.1	> 100							> 100						
CC(=O)CCC[C@@H](C)[C@@H]1O[C@H]([C@@]2(C)CCC(=O)O2)CC2[C@H]1OC(=O)C21CC1 (stereo partly specified)	> 100	> 100	> 100	49.5	> 100	> 100		> 100	61.2	8.03	> 100	> 100	> 100	> 100		60.6			> 100	> 100
O=C1C=C(Nc2cc(Cl)ccc2Cl)c2ccccc2C1=O	31.4	75.5	> 100	> 100		> 100								> 100						
COC12OCCN(C)C1=CC(=O)C1N=NCC12 (stereo unspecified)	> 100	> 100	> 100	> 100	> 100		> 100							> 100						
CC(=O)c1ccc(NC(=O)C(=O)CC(=O)c2sc(-n3nc(-c4ccccc4)cc3-c3ccccc3)nc2C)cc1	> 100	> 100	> 100	> 100	> 100	> 100	> 100							> 100						
CCOC(=O)C1(C)C2=CC=C(O2)C(C)(C)C2=CC=C(O2)C(C)(C)C2=CC=C(O2)C(C)(C)C2=CC=C1O2		> 100	> 100	> 100	> 100	> 100	> 100							> 100						
COc1ccc(N=Nc2c(-c3ccccc3)nn(C(=O)CC(=O)Nc3ccc(OC)cc3)c2-c2ccccc2)cc1	> 100	> 100	59	> 100	> 100	> 100	> 100							> 100						
COC(=O)C1=C(C)N(NC(N)=O)C2(N)N(NC(N)=O)C(C)=C(C(=O)OC)C12C#N (stereo unspecified)	> 100	> 100	> 100	> 100	> 100	> 100	> 100							> 100						
CS(=O)(=O)ON1C(=O)c2ccc(N)cc2C1=O	> 100		> 100	> 100	43.2	> 95.7	> 100							> 100						
O=c1[nH]c(-c2ccccc2)nc2cc([N+](=O)[O-])c(/C(Cl)=C/c3ccccc3)cc12	42.6	> 100	> 100	> 100	81.7	> 100	76.6							> 100						
Cc1cc(NS(=O)(=O)c2ccc(NC(=O)c3cccc4c(Nc5ccc(S(=O)(=O)Nc6cc(C)on6)cc5)c5ccc(Cl)cc5nc34)cc2)no1	> 100	> 100	> 100	> 100	> 100	> 100	> 100							> 100						
O=C1CC[C@@H](S(=O)(=O)c2ccccc2)[C@H](/C=C/c2ccccc2)O1	> 100		> 100	> 100	> 100		> 100							> 100						
COc1c(CC(C)=O)c2ccccc2n1C(C)=O	> 100	> 100	> 100	> 100										> 100						
